Where two headings read alike, the source gives them in different places.
Assays:
[1] = test system: panel of 63 other kinases, including native c-Abl; details: cited from earlier work
[2] = test system: cells not expressing Bcr-Abl; details: cited from earlier work
advanced solid tumors = assay: Phase 1b study of BA in combination with chemotherapy, clinical response via RECIST; assay type: in vivo, human; details: number of subjects; chemotherapy in combination with BA
Description: The protocol has been amended to evaluate BA in combination with chemotherapy in specific tumor types.
BA plus cytotoxic chemotherapy (CTX)
BA Dosing: • Twice weekly; i.v. infusion • Standard 3+3 design for BA dose escalation • Dose levels studied: 2.0, 2.8, 4.0, 5.6, 8.0, and up to 11.2 mg/kg
Clinical response via RECIST every 2 cycles
Subjects— 18 years old with a refractory, advanced solid tumor, ECOG PS of <=2, and adequate hematological, renal, and hepatic function
No restriction on number of prior chemotherapeutic regimens

[3] = test system: advanced endometrial cancer; details: of 29 patients enrolled; preliminary data analysis; cited from earlier work
[4] = test system: carcinosarcoma of the uterus; details: single agent; cited from earlier work
endometrial carcinoma = details: cited from earlier work
[5] = test system: carcinosarcoma of the uterus; details: cited from earlier work
[6] = test system: carcinosarcoma of the uterus; details: cited from earlier work; remark: listed apart in the source
[7] = test system: advanced or recurrent endometrial cancer; details: single agent; cited from earlier work
[8] = test system: persistent or recurrent nonsquamous cell carcinoma of the cervix; details: cited from earlier work

In the case of `NC(=O)c1cccc(-c2cc(Nc3ccc(OC(F)(F)F)cc3)ncn2)c1` [GNF-2], the “inhibition of a panel of 63 other kinases” value [1] is listed as “does not inhibit” and the “toxicity towards cells not expressing Bcr-Abl” value [2] is listed as “complete lack of toxicity”.

In the case of `Nc1ccn(C2OC(CO)C(O)C2(F)F)c(=O)n1` (centres unmarked) [Gemcitabine, 4-amino-1-[3,3-difluoro-4-hydroxy-5-(hydroxymethyl)tetrahydrofuran-2-yl]-1H-pyrimidin-2-one], the “CR + PR” value (advanced solid tumors) is reported as 3.

For `Cn1nnc2c(C(N)=O)ncn2c1=O` [Temozolomide, temozolomide], the “CR + PR” value (advanced solid tumors) was 1.

For `COc1cc2ncnc(Nc3ccc(F)c(Cl)c3)c2cc1OCCCN1CCOCC1` [ZD1839, gefitinib], the “patients with complete response” value [3] is given as 1 patient and the “patients with stable disease at 6 months” value [3] is given as “several”.

In the case of `N.N.[Cl][Pt][Cl]` [cisplatin], the response rate [4] is listed as 18%.

In the case of `COc1cccc2c1C(=O)c1c(O)c3c(c(O)c1C2=O)C[C@@](O)(C(=O)CO)C[C@@H]3O[C@H]1C[C@H](N)[C@H](O)[C@H](C)O1` [doxorubicin], the response rate [4] is given as 9.8%, the “response rate (RR)” value (endometrial carcinoma; doxorubicin 60 mg/m^2, cisplatin 50 mg/m^2, p=0.004) is given as 25% and the PFS (endometrial carcinoma; in vivo) is given as 3.8 months. The OS (endometrial carcinoma; no difference observed) was 9 months.

For `COc1cc([C@@H]2c3cc4c(cc3[C@@H](O[C@@H]3O[C@@H]5CO[C@@H](C)O[C@H]5[C@H](O)[C@H]3O)[C@H]3COC(=O)[C@H]23)OCO4)cc(OC)c1O` [etoposide], the response rate [4] is given as 6.5%.

In the case of `O=P1(NCCCl)OCCCN1CCCl` (centres unmarked) [ifosfamide], the response rate [4] is given as 32.2%, the median progression-free survival ([5]; p=0.02) is given as 4 months and the median survival ([5]; p=0.07) is given as 7.6 months. The response rate ([5]; randomized phase III trial) was 36%, the median progression-free survival ([6]; p=0.03) was 3.6 months and the median survival ([6]; p=0.03) was 8.4 months. The response rate ([6]; second randomized trial) was 29% and the toxicity ([6]; use of ifosfamide) was “significant toxicity”.

In the case of `CC(=O)O[C@H]1C(=O)[C@@]2(C)[C@H]([C@H](OC(=O)c3ccccc3)[C@]3(O)C[C@H](OC(=O)[C@H](O)[C@@H](NC(=O)c4ccccc4)c4ccccc4)C(C)=C1C3(C)C)[C@]1(OC(C)=O)CO[C@@H]1C[C@@H]2O` [paclitaxel], the response rate [4] is given as 18.2% and the response rate [7] is given as 36%.

For `CC/C(=C(\c1ccccc1)c1ccc(OCCN(C)C)cc1)c1ccccc1` [tamoxifen], the complete responses ([8]; 27 evaluable for response) is given as “one”, the partial responses ([8]; 27 evaluable for response) is given as “two” and the “grades 3 and 4 adverse effects reported” value ([8]; 32 patients evaluable for adverse effects) is given as “six”. The “antitumor activity, conclusion” value ([8]; in vivo) was “minimal activity” and the objective response rate ([8]; tamoxifen citrate 10 mg orally twice a day, 27 evaluable for response) was 11.1%.

For `CC[C@@]1(O)C(=O)OCc2c1cc1n(c2=O)Cc2cc3c(CN(C)C)c(O)ccc3nc2-1` [topotecan], the “CR + PR” value (advanced solid tumors) is given as 1 and the response rate [4] is given as 10%.

— US20090123419A1, “TREATMENT OF UTERINE CANCER AND OVARIAN CANCER WITH A PARP INHIBITOR ALONE OR IN COMBINATION WITH ANTI-TUMOR AGENTS” (BiPar Sciences, priority 2007, published 2009)
